Measured values as given in PMC5485613, “A novel TRPM8 agonist relieves dry eye discomfort” (BMC Ophthalmology, 2017).

Tests used:
human TRPM8 = molecular target: T1, human TRPM8 (Homo sapiens, UniProt Q7Z2W7); assay: TRPM8 calcium assay (Fluo-8, FLIPR) in transfected CHO cells; type: cell-based; details: x Menthol
T1 construct: host or cells: CHO cells, stably transfected
Protocol: Compounds were tested on Chinese Hamster Ovary (CHO) cells stably transfected with human TRPM8 cDNAs using a Fluo-8 calcium kit and a Fluorescence Imaging Plate Reader ([…]™) instrument. […] Solutions were prepared by diluting stock solutions in a HEPES-buffered physiological saline (HBPS) solution. Test compound and control formulations were loaded in polypropylene or glass-lined 384-well plates, and placed into the FLIPR instrument (Molecular Devices Corporation, Union City, CA, USA). Each was tested at 8 concentrations with n = 4 replicates per determination. […] For […]™ assay, cells were plated in 384-well black wall, flat clear-bottom microtiter plates (Type: BD Biocoat Poly-D-Lysine Multiwell Cell Culture Plate) at approximately 30,000 cells per well. Cells were incubated at 37 °C overnight to reach a near confluent monolayer appropriate for use in a fluorescence assay. The test procedure was to remove the growth media and to add 40 μL of HBPS containing Fluo-8 for 30 min at 37 °C. 10 μL of test compound, vehicle, or control solutions in HBPS were added to each well and read for 4 min. Concentration-response data were analyzed via the FLIPR Control software that is supplied with the FLIPR System (MDS-AT) and fitted to a Hill equation.

human TRPA1 = molecular target: T2, human TRPA1 (Homo sapiens, UniProt O75762); assay: TRPA1 calcium imaging (Fura-2) in transfected KNRK cells; type: cell-based; details: positive control, 100 μM
T2 construct: expressed in transfected cells; host or cells: KNRK cells (rat kidney), transiently transfected
Protocol: (§1) To further examine the specificity of C3, tests were conducted on TRPV1 channels and TRPA1 channels expressed in Kirsten murine sarcoma virus transformed rat kidney (KNRK) cells. KNRK cells were cultured as a monolayer and maintained in Dulbeccos’s Modified Eagles’s Medium (Life Technologies), supplemented with 10% fetal bovine serum (Life Technologies), 100 units/mL penicillin and 100 μg/mL streptomycin, in an incubator of 5% CO2 at 37 °C. After suspension, the cells were coated on cover slips for 12 h, then transiently transfected with cDNA (pc3.1 DNA) for TRPV1 or TRPA1 with Lipofectamine 2000 (Invitrogen) for 24 h, and loaded with Fura-2 AM™ (Molecular Probes) for 40 min at 37 °C. After washing and recovery, KNRK cells were imaged at 340 and 380 nm excitation to detect free calcium influx. An increase of 50% of the 340/380 ratio was considered as the response threshold which were measured under masked conditions for plasmids. Compounds were applied to the bath and calcium response was acquired by an inverted Nikon fluorescence microscope with a CoolSnap HQ2 CCD camera (Photometrics, Tucson, AZ). Data were quantified offline with the Nikon-NIS program.

eye = details: cited from earlier work
[1] = set-up: method as in ref 28 = [28]; 28. Wei ET. Topical agents for the treatment of sensory discomfort in the nasal membranes. US20150265752 A1, Sept. 24, 2015.; details: cited from earlier work
mouse TRPV1 = molecular target: T3, mouse TRPV1 (Mus musculus, UniProt Q704Y3); assay: TRPV1 calcium imaging (Fura-2) in transfected KNRK cells; type: cell-based; details: 10 μM
T3 construct: expressed in transfected cells; host or cells: KNRK cells (rat kidney), transiently transfected
Protocol: as §1

TRPM8-sensory neurons = assay: Calcium imaging of primary sensory neurons from Trpm8 EGFP mice; type: cell-based, mouse; details: menthol 100 μM
Protocol: Calcium imaging was used to test the C3 selectivity on TRPM8-sensory neurons. Trpm8 ^+/EGFPmice were gifted by Dr. Yu-Qing Cao, Pain Center of Washington University in Saint Louis, School of Medicine, Missouri. Trigeminal ganglions and dorsal root ganglions from 4 to 5 weeks old mice were collected after CO2 euthanasia and digested for 30–40 min before plated on cover slips (8 mm), which were coated with poly-D-lysine for 40 min before use. Cover slips were gently washed with culture media to remove myelin after incubating for 35–40 min. Calcium imaging was done after incubation overnight at 37 °C, 5% CO2. Neurons were loaded with Fura-2 AM™ (Molecular Probes) for 30 min at room temperature. After washing and recovery, neurons were imaged at 340 and 380 nm excitation to detect free calcium influx. An increase of 50% of the 340/380 ratio was considered as the response threshold which were measured under blinded conditions for genotypes. Compounds were applied to the bath and calcium response was acquired by an inverted Nikon fluorescence microscope with a CoolSnap HQ2 CCD camera (Photometrics, Tucson, AZ). Data was quantified offline with the Nikon-NIS program.

[2] = tested on: hNav1.7 (sodium channels); set-up: method as in ref 63 = [63]; 63. Wei ET. Design of Topical Sensory/cooling TRPM8 agonists for cough. Abstracts of the First International Cough Conference, Guangzhou, China, November 10–11, 2013.; details: 5 μM; cited from earlier work
cornea = tested on: cornea; set-up: method as in ref 62 = [62]; 62. Sung MS, Lee HS, Yang JM, Kim JG, Wei ET, Kim SJ, Yoon KC. paper presented at the 111th Annual Meeting of the Korean Ophthalmological Society, Busan, South Korea. 2014.; details: 2 mg/mL solution sprayed onto the closed eyelid; cited from earlier work

T1 sequence (Q7Z2W7 whole entry): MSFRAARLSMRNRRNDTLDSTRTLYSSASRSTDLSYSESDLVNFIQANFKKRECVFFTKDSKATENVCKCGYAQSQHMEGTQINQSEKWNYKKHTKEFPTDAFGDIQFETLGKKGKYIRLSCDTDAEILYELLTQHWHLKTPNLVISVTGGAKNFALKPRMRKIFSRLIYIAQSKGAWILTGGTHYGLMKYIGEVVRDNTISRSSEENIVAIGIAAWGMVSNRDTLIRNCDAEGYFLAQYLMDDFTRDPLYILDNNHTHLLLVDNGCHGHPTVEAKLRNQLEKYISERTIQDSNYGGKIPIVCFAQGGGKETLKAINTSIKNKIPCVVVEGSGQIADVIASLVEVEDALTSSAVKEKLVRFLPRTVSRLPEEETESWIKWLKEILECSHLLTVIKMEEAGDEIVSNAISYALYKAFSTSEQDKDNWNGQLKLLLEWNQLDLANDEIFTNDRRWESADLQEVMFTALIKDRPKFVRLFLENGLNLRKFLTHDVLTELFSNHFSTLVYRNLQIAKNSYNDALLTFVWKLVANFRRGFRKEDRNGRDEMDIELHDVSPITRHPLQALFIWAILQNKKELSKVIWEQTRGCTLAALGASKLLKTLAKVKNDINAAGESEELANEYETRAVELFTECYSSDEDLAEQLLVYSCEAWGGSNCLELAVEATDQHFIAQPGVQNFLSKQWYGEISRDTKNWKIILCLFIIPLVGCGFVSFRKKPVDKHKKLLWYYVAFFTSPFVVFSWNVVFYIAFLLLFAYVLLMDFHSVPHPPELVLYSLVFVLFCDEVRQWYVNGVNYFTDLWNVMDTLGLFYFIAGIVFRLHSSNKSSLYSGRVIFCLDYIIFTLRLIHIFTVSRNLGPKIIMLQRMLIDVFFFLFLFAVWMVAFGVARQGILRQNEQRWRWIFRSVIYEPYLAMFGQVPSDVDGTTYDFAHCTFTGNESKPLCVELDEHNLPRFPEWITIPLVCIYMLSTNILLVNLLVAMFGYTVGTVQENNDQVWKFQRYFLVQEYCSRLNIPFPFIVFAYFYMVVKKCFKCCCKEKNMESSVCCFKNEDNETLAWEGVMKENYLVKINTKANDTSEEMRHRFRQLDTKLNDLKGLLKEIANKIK
T3 sequence (Q704Y3 whole entry): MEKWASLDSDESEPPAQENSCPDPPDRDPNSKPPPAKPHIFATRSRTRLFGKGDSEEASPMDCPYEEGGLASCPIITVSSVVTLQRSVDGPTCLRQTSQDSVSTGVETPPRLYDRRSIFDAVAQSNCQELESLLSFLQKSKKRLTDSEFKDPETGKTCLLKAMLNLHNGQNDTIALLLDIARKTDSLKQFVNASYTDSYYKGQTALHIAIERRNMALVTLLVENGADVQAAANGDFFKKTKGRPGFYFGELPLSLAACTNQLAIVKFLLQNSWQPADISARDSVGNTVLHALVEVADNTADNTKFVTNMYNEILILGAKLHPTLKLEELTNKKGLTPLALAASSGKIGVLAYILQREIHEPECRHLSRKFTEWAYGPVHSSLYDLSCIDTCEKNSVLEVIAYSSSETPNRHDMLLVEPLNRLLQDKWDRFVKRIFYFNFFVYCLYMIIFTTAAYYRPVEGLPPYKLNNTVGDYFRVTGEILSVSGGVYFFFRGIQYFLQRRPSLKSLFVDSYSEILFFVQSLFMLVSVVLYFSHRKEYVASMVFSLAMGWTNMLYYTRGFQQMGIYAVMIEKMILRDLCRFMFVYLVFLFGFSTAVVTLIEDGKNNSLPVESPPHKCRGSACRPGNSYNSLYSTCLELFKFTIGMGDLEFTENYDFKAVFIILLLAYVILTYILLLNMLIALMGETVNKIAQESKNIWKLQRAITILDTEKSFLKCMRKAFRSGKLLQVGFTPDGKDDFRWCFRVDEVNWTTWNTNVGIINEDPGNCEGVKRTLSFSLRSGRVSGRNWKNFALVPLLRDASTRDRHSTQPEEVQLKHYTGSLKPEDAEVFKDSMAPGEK
T2 sequence (O75762 whole entry): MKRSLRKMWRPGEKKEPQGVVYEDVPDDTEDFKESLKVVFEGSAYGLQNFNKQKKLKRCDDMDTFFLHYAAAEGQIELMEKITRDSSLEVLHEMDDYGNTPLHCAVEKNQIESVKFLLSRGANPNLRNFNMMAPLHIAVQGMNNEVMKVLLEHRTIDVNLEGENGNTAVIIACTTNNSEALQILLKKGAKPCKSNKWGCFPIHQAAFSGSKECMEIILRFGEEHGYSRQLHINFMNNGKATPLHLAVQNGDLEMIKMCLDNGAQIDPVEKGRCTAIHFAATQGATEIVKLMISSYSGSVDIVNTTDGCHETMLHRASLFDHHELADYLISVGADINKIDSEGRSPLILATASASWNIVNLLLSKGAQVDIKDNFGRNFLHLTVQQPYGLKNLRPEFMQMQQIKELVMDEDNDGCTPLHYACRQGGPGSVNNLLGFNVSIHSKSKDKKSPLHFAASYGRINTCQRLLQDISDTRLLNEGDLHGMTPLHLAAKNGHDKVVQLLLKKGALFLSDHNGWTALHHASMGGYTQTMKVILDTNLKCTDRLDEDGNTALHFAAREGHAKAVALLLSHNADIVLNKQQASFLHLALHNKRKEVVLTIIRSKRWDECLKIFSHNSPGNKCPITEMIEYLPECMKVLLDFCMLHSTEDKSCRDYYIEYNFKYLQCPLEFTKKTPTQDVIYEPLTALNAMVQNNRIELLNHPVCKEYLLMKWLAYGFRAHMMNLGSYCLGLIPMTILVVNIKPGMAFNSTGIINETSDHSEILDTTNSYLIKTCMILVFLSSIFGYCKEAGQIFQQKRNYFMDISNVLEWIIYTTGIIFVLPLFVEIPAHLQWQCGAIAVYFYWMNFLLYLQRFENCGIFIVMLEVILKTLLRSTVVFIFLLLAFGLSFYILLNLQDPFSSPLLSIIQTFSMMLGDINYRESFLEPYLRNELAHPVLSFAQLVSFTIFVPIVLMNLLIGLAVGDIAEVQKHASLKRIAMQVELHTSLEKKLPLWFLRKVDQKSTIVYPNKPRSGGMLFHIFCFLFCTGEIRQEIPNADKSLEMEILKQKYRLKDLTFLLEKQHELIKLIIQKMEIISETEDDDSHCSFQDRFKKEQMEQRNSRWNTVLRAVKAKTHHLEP

| SMILES | relative potency to l-menthol (menthol = 1) (human TRPM8) | also measured |
| --- | --- | --- |
| CCCCCCCP(=O)(C(C)CC)C(C)CC (stereo not shown) [1-di-sec-butylphosphoryl-heptane] | 3.4 | – |
| CCCCP(=O)(C(C)CC)C(C)CC (stereo not shown) [1-di-sec-butylphosphoryl-4] | 0.3 | – |
| C=CCN=C=S [mustard oil, reference compound] | – | activation of TRPA1 (calcium response) (human TRPA1): active |
| CCCCCP(=O)(C(C)C)C(C)C [1-diisopropylphosphoryl-pentane] | 0.7 | – |
| CCC(C)P(=O)(CCC(C)C)C(C)CC (stereo not shown) [1-di-sec-butylphosphoryl-3-methyl-butane] | 0.9 | – |
| O=C1NC(c2cccc([N+](=O)[O-])c2)=CCN1c1ccccc1O [Icilin, icilin] | – | sensation on the eyelids (eye; anecdotal): punctate and long-lasting cooling; solubility in ophthalmic vehicles [1]: not soluble |
| COc1cc(CNC(=O)CCCC/C=C/C(C)C)ccc1O [capsaicin, reference compound] | – | activation of TRPV1 (calcium response) (mouse TRPV1): active |
| CCCCCCCCP(=O)(C(C)C)C(C)C [1-diisopropylphosphoryl-octane] | 5.4 | – |
| CCCCCCCCP(=O)(C(C)CC)C(C)CC (stereo not shown) [1-di-sec-butylphosphoryl-octane] | 2.9 | – |
| CC(C)[C@@H]1CC[C@@H](C)C[C@H]1O [l-menthol, reference compound] | – | eye sensation after menthol solutions (eye): stinging followed by a brief episode of cooling; calcium response of Trpm8 EGFPf/+ neurons (TRPM8-sensory neurons): sensitive |
| CCCCCCP(=O)(C(C)CC)C(C)CC (stereo not shown) [1-di-sec-butylphosphoryl-hexane] | 4.7 | – |
| CCCCCCP(=O)(C(C)C)C(C)C [1-diisopropylphosphoryl-hexane] | 1.6 | – |
| CCCCCCCP(=O)(C(C)C)C(C)C [1-diisopropylphosphoryl-heptane] | 5.4 | – |
| CCCCCP(=O)(CC(C)C)CC(C)C [1-diisobutylphosphoryl-pentane] | 0.2 | – |
| CCCCCP(=O)(C(C)CC)C(C)CC (stereo not shown) [1-di-sec-butylphosphoryl-pentane] | 2.2 | lidocaine-like activity on hNav1.7 [2]: did not have lidocaine-like activity; corneal sensitivity (cornea): not affected |
